Structures can show the parent of a compound that is named as a salt.

The target of the assay is recombinant Human Phosphodiesterase B2 (PDE4B2) (Homo sapiens, UniProt Q07343). Description: Human Phosphodiesterase B2 Radiometric Assay. Type of assay: biochemical. The settings on record: 0.1 μg/mL recombinant PDE4B2; preincubated at 30 C for 30 min; [3H]cyclic AMP 8 nM, stopped after 20 min; yttrium silicate SPA beads; read-out: PDE4B2 pIC50 (converted). An outline of the steps: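 Compounds preincubated 30 min at 30 C with 0.1 μg/mL recombinant PDE4B2 in 50 mM HEPES pH 7.5, 8.3 mM MgCl2, 1.7 mM EGTA, 0.01% Brij 35.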
recombinant Human Phosphodiesterase B2 (PDE4B2), sequence (Q07343 1-564 isoform Q07343-2): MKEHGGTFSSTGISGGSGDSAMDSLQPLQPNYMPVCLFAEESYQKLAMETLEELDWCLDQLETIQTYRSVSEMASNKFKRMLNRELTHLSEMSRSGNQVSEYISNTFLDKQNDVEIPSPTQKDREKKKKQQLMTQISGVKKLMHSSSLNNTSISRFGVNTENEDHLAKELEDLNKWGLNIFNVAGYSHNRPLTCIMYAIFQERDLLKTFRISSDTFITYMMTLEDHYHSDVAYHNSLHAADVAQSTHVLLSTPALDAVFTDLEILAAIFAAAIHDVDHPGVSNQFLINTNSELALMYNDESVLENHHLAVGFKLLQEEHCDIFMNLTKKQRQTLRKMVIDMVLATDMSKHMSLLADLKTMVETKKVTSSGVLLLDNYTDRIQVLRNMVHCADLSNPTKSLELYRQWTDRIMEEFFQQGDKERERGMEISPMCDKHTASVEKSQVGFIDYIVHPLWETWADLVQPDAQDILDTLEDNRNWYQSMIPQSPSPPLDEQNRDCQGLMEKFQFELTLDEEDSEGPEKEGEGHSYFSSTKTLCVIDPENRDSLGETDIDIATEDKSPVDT
As to `C[C@@H]1CN(Cc2cc(-c3cccc(Oc4ncc(F)cc4C(=O)N[C@H]4CC[C@@H](NC(=O)c5cc6n(n5)CCCC6)CC4)c3)ccc2O)C[C@H](C)N1` [Example 101, N-((1s,4s)-4-(2-(3′-(((3R,5S)-3,5-dimethylpiperazin-1-yl)methyl)-4′-hydroxybiphenyl-3-yloxy)-5-fluoronicotinamido)cyclohexyl)-4,5,6,7-tetrahydropyrazolo[1,5-a]pyridine-2-carboxamide], the IC50 is 0.0631 nM. As for `Cc1cccc2nc(C(=O)N[C@H]3CC[C@@H](NC(=O)c4cc(F)cnc4Oc4cccc(-c5ccc(CCCNC(C)C)cc5)c4)CC3)cn12` [Example 116, N-((1s,4s)-4-(5-fluoro-2-(4′-(3-(isopropylamino)propyl)biphenyl-3-yloxy)nicotinamido)cyclohexyl)-5-methylimidazo[1,2-a]pyridine-2-carboxamide], the IC50 was 0.0316 nM.

As to `C[C@@H]1CN(Cc2ccc(-c3cccc(Oc4ncc(F)cc4C(=O)N[C@H]4CC[C@@H](NC(=O)c5cc6ccccn6n5)CC4)c3)cc2)C[C@H](C)N1` [Example 71, N-((1s,4s)-4-(2-(4′-(((3S,5R)-3,5-dimethylpiperazin-1-yl)methyl)biphenyl-3-yloxy)-5-fluoronicotinamido)cyclohexyl)pyrazolo[1,5-a]pyridine-2-carboxamide], the IC50 is 0.0251 nM. Take `O=C(N[C@H]1CC[C@@H](NC(=O)c2cc(F)cnc2Oc2cccc(-c3ccc(O)cc3CN3CCOCC3)c2)CC1)c1csc(CO)n1` [Example 58, N-((1s,4s)-4-(5-fluoro-2-(4′-hydroxy-2′-(morpholinomethyl)biphenyl-3-yloxy)nicotinamido)cyclohexyl)-2-(hydroxymethyl)thiazole-4-carboxamide]: the IC50 was 0.0631 nM.

As for `C[C@@H]1CN(Cc2ccc(-c3cccc(Oc4ncc(F)cc4C(=O)N[C@H]4CC[C@@H](NC(=O)c5cccc6[nH]cnc56)CC4)c3)c(CN3CCSCC3)c2)C[C@H](C)N1` [Example 202, N-((1s,4s)-4-(2-(4′-(((3S,5R)-3,5-dimethylpiperazin-1-yl)methyl)-2′-(thiomorpholinomethyl)biphenyl-3-yloxy)-5-fluoronicotinamido)cyclohexyl)-1H-benzo[d]imidazole-4-carboxamide], the IC50 is 0.0126 nM. Regarding `Cc1cc(C)n2ncc(C(=O)N[C@H]3CC[C@@H](NC(=O)c4cc(F)cnc4Oc4cccc(-c5ccc(CN6CCCN(CCO)CC6)cc5CN5CCSCC5)c4)CC3)c2n1` [Example 182, N-((1s,4s)-4-(5-Fluoro-2-(4′-((4(2-hydroxyethyl)-1,4-diazepan-1-yl)methyl)-2′-(thiomorpholinomethyl)biphenyl-3-yloxy)nicotinamido)cyclohexyl)-5,7-dimethylpyrazolo[1,5-a]pyrimidine-3-carboxamide], the IC50 was 0.0398 nM. The value for `O=C(N[C@H]1CC[C@@H](NC(=O)c2cc(F)cnc2Oc2cccc(-c3ccc(CCCNCCCO)cc3)c2)CC1)c1cc2ccccn2n1` [Example 159, N-((1s,4s)-4-(5-Fluoro-2-(4′-(3-(3-hydroxypropylamino)propyl)biphenyl-3-yloxy)nicotinamido)cyclohexyl)pyrazolo[1,5-a]pyridine-2-carboxamide] was 0.0501 nM; that for `Cc1nc(C(=O)N[C@H]2CC[C@@H](NC(=O)c3cc(F)cnc3Oc3cccc(-c4ccc(O)cc4CN(C)C)c3)CC2)cs1` [Example 9, N-((1s,4s)-4-(2-(2′-((dimethylamino)methyl)-4′-hydroxybiphenyl-3-yloxy)-5-fluoronicotinamido)cyclohexyl)-2-methylthiazole-4-carboxamide] was 0.0316 nM. The value for `Cc1nc(C(=O)N[C@H]2CC[C@@H](NC(=O)c3cc(F)cnc3Oc3cccc(-c4ccc(CN5CCCOCC5)cc4)c3)CC2)cs1` [Example 55, N-((1s,4s)-4-(2-(4′-((1,4-oxazepan-4-yl)methyl)biphenyl-3-yloxy)-5-fluoronicotinamido)cyclohexyl)-2-methylthiazole-4-carboxamide] was 0.1 nM; that for `Cc1nc(C(=O)N[C@H]2CC[C@@H](NC(=O)c3cc(F)cnc3Oc3cccc(-c4ccc(CCN5CCNCC5)cc4)c3)CC2)cs1` [Example 177, N-((1s,4s)-4-(5-Fluoro-2-(4′-(2-(piperazin-1-yl)ethyl)biphenyl-3-yloxy)nicotinamido)cyclohexyl)-2-methylthiazole-4-carboxamide] was 0.0501 nM; that for `C[C@@H]1CN(Cc2ccc(-c3cccc(Oc4ncc(F)cc4C(=O)N[C@H]4CC[C@@H](NC(=O)c5cn6cc(F)ccc6n5)CC4)c3)c(CN3CCSCC3)c2)C[C@H](C)N1` [Example 169, N-((1s,4s)-4-(2-(4′-(((3S,5R)-3,5-Dimethylpiperazin-1-yl)methyl)-2′-(thiomorpholinomethyl)biphenyl-3-yloxy)-5-fluoronicotinamido)cyclohexyl)-6-fluoroimidazo[1,2-a]pyridine-2-carboxamide] was 0.02 nM. Consider `Cc1cccc(C(=O)N[C@H]2CC[C@@H](NC(=O)c3cc(F)cnc3Oc3cccc(-c4ccc(O)cc4CN(C)C)c3)CC2)n1` [Example 10, N-((1s,4s)-4-(2-(2′-((dimethylamino)methyl)-4′-hydroxybiphenyl-3-yloxy)-5-fluoronicotinamido)cyclohexyl)-6-methylpicolinamide], for which the IC50 was 0.0316 nM. For `Cc1nc(C(=O)N[C@H]2CC[C@@H](NC(=O)c3cc(F)cnc3Oc3cccc(-c4ccc(CCCN5CCCNCC5)cc4)c3)CC2)cs1` [Example 135, N-((1s,4s)-4-(2-(4′-(3-(1,4-diazepan-1-yl)propyl)biphenyl-3-yloxy)-5-fluoronicotinamido)cyclohexyl)-2-methylthiazole-4-carboxamide] the value was 0.0501 nM; for `Cc1cc(C(=O)N[C@H]2CC[C@@H](NC(=O)c3cc(F)cnc3Oc3cccc(-c4ccc(CCCNCCCO)cc4)c3)CC2)nn1C` [Example 152, N-((1s,4s)-4-(1,5-dimethyl-1H-pyrazole-3-carboxamido)cyclohexyl)-5-fluoro-2-(4′-(3-(3-hydroxypropylamino)propyl)biphenyl-3-yloxy)nicotinamide], 0.0398 nM; for `O=C(N[C@H]1CC[C@@H](NC(=O)c2cc(F)cnc2Oc2cccc(-c3ccc(O)cc3CN3CCOCC3)c2)CC1)c1cc2ccccc2nc1O` [Example 42, N-((1s,4s)-4-(5-fluoro-2-(4′-hydroxy-2′-(morpholinomethyl)biphenyl-3-yloxy)nicotinamido)cyclohexyl)-2-hydroxyquinoline-3-carboxamide], 0.0501 nM. For `O=C(N[C@H]1CC[C@@H](NC(=O)c2cc(F)cnc2Oc2cccc(-c3ccc(CCCN4CCCNCC4)cc3)c2)CC1)c1cc2n(n1)CCCC2` [Example 127, N-((1s,4s)-4-(2-(4′-(3-(1,4-diazepan-1-yl)propyl)biphenyl-3-yloxy)-5-fluoronicotinamido)cyclohexyl)-4,5,6,7-tetrahydropyrazolo[1,5-a]pyridine-2-carboxamide] the value was 0.0794 nM; for `Cc1cc(C(=O)N[C@H]2CC[C@@H](NC(=O)c3cc(F)cnc3Oc3cccc(-c4ccc(CCCN5CCNC[C@H]5C)cc4)c3)CC2)nn1C` [Example 142, N-((1s,4s)-4-(1,5-dimethyl-1H-pyrazole-3-carboxamido)cyclohexyl)-5-fluoro-2-(4′-(3-((R)-2-methylpiperazin-1-yl)propyl)biphenyl-3-yloxy)nicotinamide], 0.0251 nM. The value for `Cc1cccc2nc(C(=O)N[C@H]3CC[C@@H](NC(=O)c4cc(F)cnc4Oc4cccc(-c5ccc(O)cc5CN5CCCOCC5)c4)CC3)cn12` [Example 20, N-((1s,4s)-4-(2-(2′-((1,4-oxazepan-4-yl)methyl)-4′-hydroxybiphenyl-3-yloxy)-5-fluoronicotinamido)cyclohexyl)-5-methylimidazo[1,2-a]pyridine-2-carboxamide] was 0.0316 nM.

On to `C[C@@H]1CN(Cc2cc(-c3cccc(Oc4ncc(F)cc4C(=O)N[C@H]4CC[C@@H](NC(=O)c5cn6c(n5)CCCC6)CC4)c3)ccc2O)C[C@H](C)N1` [Example 91, N-((1s,4s)-4-(2-(3′-(((3S,5R)-3,5-dimethylpiperazin-1-yl)methyl)-4′-hydroxybiphenyl-3-yloxy)-5-fluoronicotinamido)cyclohexyl)-5,6,7,8-tetrahydroimidazo[1,2-a]pyridine-2-carboxamide], for which the IC50 was 0.251 nM. As for `O=C(N[C@H]1CC[C@@H](NC(=O)c2cc(F)cnc2Oc2cccc(-c3ccc(CCCN4CCNCC4)cc3)c2)CC1)c1cn2c(n1)CCCC2` [Example 137, N-((1s,4s)-4-(5-fluoro-2-(4′-(3-(piperazin-1-yl)propyl)biphenyl-3-yloxy)nicotinamido)cyclohexyl)-5,6,7,8-tetrahydroimidazo[1,2-a]pyridine-2-carboxamide], the IC50 is 0.0501 nM.

In the case of `C[C@@H]1CN(CCCc2ccc(-c3cccc(Oc4ncc(F)cc4C(=O)N[C@H]4CC[C@@H](NC(=O)c5cc6ncccn6n5)CC4)c3)cc2)C[C@H](C)N1` [Example 143, N-((1s,4s)-4-(2-(4′-(3-((3S,5R)-3,5-dimethylpiperazin-1-yl)propyl)biphenyl-3-yloxy)-5-fluoronicotinamido)cyclohexyl)pyrazolo[1,5-a]pyrimidine-2-carboxamide], the IC50 is 0.0794 nM. The value for `Cc1cccc2nc(C(=O)N[C@H]3CC[C@@H](NC(=O)c4cc(F)cnc4Oc4cccc(-c5ccc(CN6C[C@@H](C)N[C@@H](C)C6)cc5)c4)CC3)cn12` [Example 48, N-((1s,4s)-4-(2-(4′-(((3S,5R)-3,5-dimethylpiperazin-1-yl)methyl)biphenyl-3-yloxy)-5-fluoronicotinamido)cyclohexyl)-5-methylimidazo[1,2-a]pyridine-2-carboxamide] was 0.0631 nM. For `CN(C)CCN(C)Cc1ccc(-c2cccc(Oc3ncc(F)cc3C(=O)N[C@H]3CC[C@@H](NC(=O)c4cc5n(n4)CCCC5)CC3)c2)cc1` [Example 110, N-((1s,4s)-4-(2-(4′-(((2-(dimethylamino)ethyl)(methyl)amino)methyl)biphenyl-3-yloxy)-5-fluoronicotinamido)cyclohexyl)-4,5,6,7-tetrahydropyrazolo[1,5-a]pyridine-2-carboxamide hydrochloride] the value was 0.2 nM.

For the origin of these results see patent US8273774B2, “Phenoxypyridinylamide compounds” (AstraZeneca AB, priority 2008, dated 2012).
